Key:
Assay type in all cases: binding
[1] = target: TEAD1 (Homo sapiens (Human), UniProt P28347); experiment: TEAD lipid pocket TR-FRET (Lipid HTRF) probe competition assay; conditions: 30 mins incubation with compound; read-out: Lipid HTRF TEAD1 IC50
Procedure: (§1) His-tagged TEAD proteins are pre-incubated with TEAD project compounds for 30 minutes or 4 hours at room temperature. Biotinylated lipid pocket probes are then added to the TEAD/Compound mixture and incubated for 60 minutes at room temperature. The lipid pocket probe competes with the test compound for the TEAD lipid pocket until equilibrium is reached. After 60 minutes, Europium labelled anti-His (Perkin Elmer #ADO 110) and XL665 labelled streptavidin (CIS Bio 610SAXAC) are added to the TEAD/test compound/lipid pocket mixture and incubated for 30 minutes or 4 hours. […] If a TEAD lipid pocket binder such as binds and displaces the lipid pocket probe, the disruption of the TEAD:probe interaction results in a decrease in TR-FRET signal. The potency of compounds as TEAD lipid pocket binders is determined by IC50 value generated using a non-linear 4 parameter curve fit.
(§2) Note that the “Compound Number” in Table 2 and Table 3 corresponds to the “Compound Number” in Table 1.

[2] = target: TEAD2 (Homo sapiens (Human), UniProt Q15562); experiment: as above; conditions: 30 mins incubation with compound; read-out: Lipid HTRF TEAD2 IC50
Procedure: as §1, §2

[3] = target: TEAD3 (Homo sapiens (Human), UniProt Q99594); experiment: as above; conditions: 30 mins incubation with compound
Procedure: as §1, §2

[4] = target: TEAD4 (Homo sapiens (Human), UniProt Q15561); experiment: as above; conditions: 30 mins incubation with compound; read-out: Lipid HTRF TEAD4 IC50
Procedure: as §1, §2

[5] = target: TEAD1 YAP50-100 (Homo sapiens (Human), UniProt P28347); experiment: TEAD-YAP protein-protein interaction HTRF assay; conditions: TEAD1 YAP50-100 HTRF combined EC50, 30 mins incubation with compound
Procedure: (§3) Purified His-tagged TEAD protein (YAP Binding Domain, amino acids 217-447) is pre-incubated with Europium labelled anti-His antibody tracer (Perkin Elmer Cat #AD0110). Small molecule Inhibitors are then incubated with the TEAD-Eu protein complex for 30 minutes or 4 hours to allow for binding to TEAD protein. Biotinylated YAP peptide for TEAD-YAP assays (AA's 50-100) or biotinylated TAZ peptide for TEAD-TAZ assays (AA's 13-57) that has been pre-incubated with streptavidin −xl665 acceptor (CIS-Bio Cat #610SAXAC) or is added to the compound-TEAD mix. The TEAD-YAP-inhibitor mixture is then incubated for 60 minutes at room temperature. All reactions are carried out in a polystyrene plate. After 60 minutes, the plate is read on a plate reader using TR-FRET mode with wavelengths of 665 nm/615 nm. If YAP or TAZ binds to TEAD as expected, a TR-FRET signal results from the proximity of YAP or TAZ and TEAD after binding. If an inhibitor such as peptide 17 (Selleckchem Cat #S8164) interferes with YAP-TEAD or TAZ-TEAD binding, the disruption of the YAP or TAZ:TEAD interaction results in a decrease in TR-FRET signal. The potency of compounds as YAP:TEAD or TAZ:TEAD protein-protein interaction (PPi) inhibitors is determined by an IC50 or EC50 value generated using a non-linear four parameter curve fit. The extent to which representative examples of the disclosed compounds are able to inhibit interaction between TEAD1, TEAD2, TEAD3 or TEAD4 and YAP truncated from amino acids 50-100 or TAZ truncated from amino acids 13-57 as measured by Homogeneous Time Resolved Fluorescence (HTRF) to generate EC50 and IC50 data.
(§4) Note that the “Compound Number” in Table 4 corresponds to the “Compound Number” in Table 1. […]

[6] = target: TEAD2 YAP50-100 (Homo sapiens (Human), UniProt Q15562); experiment: TEAD-YAP protein-protein interaction HTRF assay; conditions: TEAD2 YAP50-100 HTRF combined EC50, 30 mins incubation with compound
Procedure: as §3, §4

[7] = target: TEAD3 YAP50-100 (Homo sapiens (Human), UniProt Q99594); experiment: TEAD-YAP protein-protein interaction HTRF assay; conditions: TEAD3 YAP50-100 HTRF combined EC50, 30 mins incubation with compound
Procedure: as §3, §4

[8] = target: TEAD4 YAP50-100 (Homo sapiens (Human), UniProt Q15561); experiment: TEAD-YAP protein-protein interaction HTRF assay; conditions: TEAD4 YAP50-100 HTRF combined EC50, 30 mins incubation with compound
Procedure: as §3, §4

Sequence of TEAD3 (Q99594 whole entry, species assumed): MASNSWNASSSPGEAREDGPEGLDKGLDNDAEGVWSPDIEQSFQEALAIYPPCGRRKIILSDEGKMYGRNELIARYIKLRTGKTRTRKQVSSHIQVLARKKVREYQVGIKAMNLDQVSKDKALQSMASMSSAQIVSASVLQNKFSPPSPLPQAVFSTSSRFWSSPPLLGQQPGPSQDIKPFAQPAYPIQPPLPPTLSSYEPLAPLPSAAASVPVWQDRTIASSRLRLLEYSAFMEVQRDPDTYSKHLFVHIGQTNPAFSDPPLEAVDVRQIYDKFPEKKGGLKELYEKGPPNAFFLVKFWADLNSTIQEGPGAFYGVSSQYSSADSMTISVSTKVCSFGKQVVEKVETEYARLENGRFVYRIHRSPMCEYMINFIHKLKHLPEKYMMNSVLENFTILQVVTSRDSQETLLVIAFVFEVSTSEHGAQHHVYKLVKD
Sequence of TEAD2 YAP50-100 (Q15562 217-447): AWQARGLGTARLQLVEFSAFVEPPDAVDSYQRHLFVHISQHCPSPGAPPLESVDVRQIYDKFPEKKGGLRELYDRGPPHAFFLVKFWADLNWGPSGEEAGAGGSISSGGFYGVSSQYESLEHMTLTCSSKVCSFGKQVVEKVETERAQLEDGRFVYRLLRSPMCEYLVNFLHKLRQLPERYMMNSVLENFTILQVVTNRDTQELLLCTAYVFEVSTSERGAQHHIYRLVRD
Sequence of TEAD4 (Q15561 whole entry, species assumed): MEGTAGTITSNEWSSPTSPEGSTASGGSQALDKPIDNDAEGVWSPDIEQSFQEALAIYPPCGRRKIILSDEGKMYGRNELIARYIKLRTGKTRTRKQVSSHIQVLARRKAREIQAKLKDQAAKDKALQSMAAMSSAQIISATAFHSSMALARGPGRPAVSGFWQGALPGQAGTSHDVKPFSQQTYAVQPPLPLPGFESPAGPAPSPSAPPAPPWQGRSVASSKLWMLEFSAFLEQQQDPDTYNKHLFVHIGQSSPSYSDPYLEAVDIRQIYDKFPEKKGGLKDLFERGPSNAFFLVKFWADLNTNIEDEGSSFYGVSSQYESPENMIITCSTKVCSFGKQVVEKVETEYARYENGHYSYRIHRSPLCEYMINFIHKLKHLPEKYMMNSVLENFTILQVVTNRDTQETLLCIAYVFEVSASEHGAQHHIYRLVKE
Sequence of TEAD1 YAP50-100 (P28347 209-426): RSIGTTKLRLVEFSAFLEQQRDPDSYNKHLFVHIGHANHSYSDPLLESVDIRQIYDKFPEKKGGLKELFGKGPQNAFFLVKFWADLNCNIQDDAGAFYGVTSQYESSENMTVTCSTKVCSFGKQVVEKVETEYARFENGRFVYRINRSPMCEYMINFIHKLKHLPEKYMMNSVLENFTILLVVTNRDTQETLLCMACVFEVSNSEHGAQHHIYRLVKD
Sequence of TEAD1 (P28347 whole entry, species assumed): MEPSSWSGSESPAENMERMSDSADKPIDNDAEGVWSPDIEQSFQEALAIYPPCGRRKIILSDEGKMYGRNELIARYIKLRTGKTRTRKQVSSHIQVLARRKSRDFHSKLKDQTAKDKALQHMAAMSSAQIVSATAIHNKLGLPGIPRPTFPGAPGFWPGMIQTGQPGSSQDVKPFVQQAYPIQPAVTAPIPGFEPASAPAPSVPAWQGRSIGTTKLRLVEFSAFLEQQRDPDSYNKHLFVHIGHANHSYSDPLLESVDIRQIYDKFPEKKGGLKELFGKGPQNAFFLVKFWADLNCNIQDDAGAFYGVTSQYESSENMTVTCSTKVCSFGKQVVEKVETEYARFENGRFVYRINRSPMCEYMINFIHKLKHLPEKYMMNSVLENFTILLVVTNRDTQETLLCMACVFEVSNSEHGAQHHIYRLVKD
Sequence of TEAD2 (Q15562 whole entry): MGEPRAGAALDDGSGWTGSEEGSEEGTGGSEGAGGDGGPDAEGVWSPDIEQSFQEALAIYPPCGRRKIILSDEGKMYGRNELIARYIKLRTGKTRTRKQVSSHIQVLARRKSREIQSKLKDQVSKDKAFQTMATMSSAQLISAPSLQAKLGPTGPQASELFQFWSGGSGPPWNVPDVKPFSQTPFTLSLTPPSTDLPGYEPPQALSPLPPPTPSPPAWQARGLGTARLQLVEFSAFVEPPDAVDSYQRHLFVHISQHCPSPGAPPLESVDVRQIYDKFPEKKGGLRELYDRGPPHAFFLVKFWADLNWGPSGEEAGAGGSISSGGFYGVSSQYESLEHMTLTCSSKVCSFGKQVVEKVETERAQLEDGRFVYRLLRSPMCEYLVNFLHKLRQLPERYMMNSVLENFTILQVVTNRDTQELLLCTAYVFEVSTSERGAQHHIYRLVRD
Sequence of TEAD3 YAP50-100 (Q99594 218-435): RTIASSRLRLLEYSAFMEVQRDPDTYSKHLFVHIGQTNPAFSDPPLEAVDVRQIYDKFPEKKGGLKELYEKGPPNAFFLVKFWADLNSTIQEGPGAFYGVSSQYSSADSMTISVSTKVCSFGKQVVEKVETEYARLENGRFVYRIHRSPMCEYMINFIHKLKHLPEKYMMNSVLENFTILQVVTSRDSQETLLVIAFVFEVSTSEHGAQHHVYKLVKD
Sequence of TEAD4 YAP50-100 (Q15561 217-434): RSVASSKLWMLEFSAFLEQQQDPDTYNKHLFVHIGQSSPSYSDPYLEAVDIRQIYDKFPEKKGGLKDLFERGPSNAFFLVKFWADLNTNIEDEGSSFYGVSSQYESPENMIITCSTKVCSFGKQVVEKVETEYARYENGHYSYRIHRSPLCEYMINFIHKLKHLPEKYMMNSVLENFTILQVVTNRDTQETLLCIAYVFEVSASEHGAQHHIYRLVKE

Compound	IC50 [1] [nM]	IC50 [2] [nM]	IC50 [3] [nM]	IC50 [4] [nM]	EC50 [5] [nM]	EC50 [6] [nM]	EC50 [7] [nM]	EC50 [8] [nM]
C=C(CNc1cc(-c2ccc(OC(F)(F)F)cc2)c2ncsc2c1C#N)C(N)=O [Compound 42, 2-[[[7-cyano-4-[4-(trifluoromethoxy)phenyl]-1,3-benzothiazol-6-yl]amino]methyl]prop-2-enamide]	370	140	> 50000	260	> 50000	> 50000	> 50000	> 50000
C=C(CNc1cc(-c2ccc(C(C)C)cc2)c2c(c1C#N)CCO2)B(O)O [Compound 10, 1-[[[4-cyano-7-(4-isopropylphenyl)-2,3-dihydrobenzofuran-5-yl]amino]methyl]vinylboronic acid]	6300	2700	> 50000	1300	5700	2100	> 50000	2100
C=C(CNc1cc(-c2ccc(C(C)C)cc2)c2c(c1C#N)CCO2)C(=O)O [Compound 3, 2-[[[4-cyano-7-(4-isopropylphenyl)-2,3-dihydrobenzofuran-5-yl]amino]methyl]prop-2-enoic acid]	20	60	2880	20	20	30	6220	30
C=C(CNc1cc(-c2ccc(C(F)(F)F)cc2)c2c(c1C#N)CCO2)C(=O)O [Compound 15, 2-[[[4-cyano-7-[4-(trifluoromethyl)phenyl]-2,3-dihydrobenzofuran-5-yl]amino]methyl]prop-2-enoic acid]	50	530	3400	110	40	380	11000	250
C=C(CN(C)c1cc(-c2ccc(C(C)C)cc2)c2c(c1C#N)CCO2)C(=O)O [Compound 7, 2-[[[4-cyano-7-(4-isopropylphenyl)-2,3-dihydrobenzofuran-5-yl]-methyl-amino]methyl]prop-2-enoic acid]	540	230	14000	160	510	180	> 50000	430
C=C(CNc1cc(-c2ccc(C(C)(F)F)cc2)c2ncsc2c1C#N)C(=O)O [Compound 24, 2-[[[7-cyano-4-[4-(1,1-difluoroethyl)phenyl]-1,3-benzothiazol-6-yl]amino]methyl]prop-2-enoic acid]	160	740	20000	370	80	260	15000	> 50000
C=C(CNc1cc2c(c(-c3ccc(C(C)C)cc3)c1)OCC2)C(N)=O [Compound 2, 2-[[[7-(4-isopropylphenyl)-2,3-dihydrobenzofuran-5-yl]amino]methyl]prop-2-enamide]	590	80	18000	30	460	70	18000	90
C=C(CNc1cc(-c2ccc(C(C)C)cc2)c2c(c1CO)CCO2)C(=O)NO [Compound 14, 2-[[[4-(hydroxymethyl)-7-(4-isopropylphenyl)-2,3-dihydrobenzofuran-5-yl]amino]methyl]prop-2-enehydroxamic acid]	520	120	2400	420	280	70	3400	890
